Measurements published in patent US20260374782A1, “NEW COMPOUNDS, PROCESSES FOR PREPARING THE SAME AND THEIR USE AS DRUGS” (B&A ONCOMEDICAL, priority 2022, published 2026).

Biological target: T1, NKCC1 (Homo sapiens, UniProt P55011)
T1 construct: endogenous in cells; host or cells: native HEK293 cells
T1 sequence (P55011 1-1212): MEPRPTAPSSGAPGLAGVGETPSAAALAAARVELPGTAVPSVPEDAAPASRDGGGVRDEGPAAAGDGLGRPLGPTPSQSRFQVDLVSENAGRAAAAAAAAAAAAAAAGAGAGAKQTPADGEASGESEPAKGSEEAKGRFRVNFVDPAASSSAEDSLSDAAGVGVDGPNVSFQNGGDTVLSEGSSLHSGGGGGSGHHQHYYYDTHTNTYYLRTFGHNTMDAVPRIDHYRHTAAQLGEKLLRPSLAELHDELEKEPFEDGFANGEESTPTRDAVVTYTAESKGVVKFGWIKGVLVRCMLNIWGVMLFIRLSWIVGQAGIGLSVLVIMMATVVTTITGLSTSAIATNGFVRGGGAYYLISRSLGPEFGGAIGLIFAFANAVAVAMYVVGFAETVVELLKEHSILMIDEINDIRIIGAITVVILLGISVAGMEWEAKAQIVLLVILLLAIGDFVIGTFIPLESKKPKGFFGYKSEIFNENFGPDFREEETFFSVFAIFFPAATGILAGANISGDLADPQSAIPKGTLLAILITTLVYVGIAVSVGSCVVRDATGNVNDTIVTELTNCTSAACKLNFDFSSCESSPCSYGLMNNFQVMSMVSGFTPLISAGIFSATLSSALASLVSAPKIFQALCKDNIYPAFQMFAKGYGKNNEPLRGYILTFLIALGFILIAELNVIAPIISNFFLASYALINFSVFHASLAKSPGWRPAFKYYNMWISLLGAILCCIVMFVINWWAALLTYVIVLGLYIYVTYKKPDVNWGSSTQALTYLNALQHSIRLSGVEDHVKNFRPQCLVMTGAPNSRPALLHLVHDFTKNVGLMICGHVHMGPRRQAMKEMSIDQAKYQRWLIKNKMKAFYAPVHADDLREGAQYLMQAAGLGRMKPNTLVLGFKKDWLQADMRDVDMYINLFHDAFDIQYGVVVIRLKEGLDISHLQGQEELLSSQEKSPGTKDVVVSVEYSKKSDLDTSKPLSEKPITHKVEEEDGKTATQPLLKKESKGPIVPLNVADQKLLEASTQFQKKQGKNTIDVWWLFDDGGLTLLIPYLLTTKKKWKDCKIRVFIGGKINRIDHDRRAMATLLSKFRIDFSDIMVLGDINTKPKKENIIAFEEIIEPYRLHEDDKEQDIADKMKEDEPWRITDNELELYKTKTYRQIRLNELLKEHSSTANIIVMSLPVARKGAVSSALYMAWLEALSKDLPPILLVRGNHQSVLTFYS
Test: NKCC1-mediated K+ influx (83Rb tracer uptake) in native HEK293 cells, hypertonic saline, 100 μM ouabain
Type: cell-based
Details: HEK293, no drug = 1000, 20 μM bumetanide = 0; for inhibition at 2 µM: read-out: NKCC1 mediated flux inhibition at 2 μM (%); for inhibition at 20 µM: read-out: NKCC1 mediated flux inhibition at 20 μM (%)
Outline: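 Native cells in slightly hypertonic saline with 100 μM ouabain; 15 min preincubation then 15 min 83Rb uptake (0.25 μCi/mL), scintillation counting normalized to protein. Compounds at 2 μM and 20 μM; flux scaled 1000 (no drug) to 0 (20 μM bumetanide), triplicate dishes.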

inhibition at 2 µM [%] | inhibition at 20 µM [%] | SMILES
10 to 30 | 10 to 30 | CCCCNc1cc(C(=O)O)cc(S(=O)(=Nc2ccccc2)N2CCCCCC2)c1Oc1ccccc1 (stereo not drawn) [Compound 101, 3-[S-(azepan-1-yl)-N-phenyl-sulfonimidoyl]-5-(butylamino)-4-phenoxy-benzoic acid]
– | 10 to 30 | CCCCNc1cc(C(=O)NC)cc(S(=N)(=O)NCc2ccccc2)c1Oc1ccccc1 (centres unmarked) [Compound 102, 3-[(benzylamino)sulfonimidoyl]-5-(butylamino)-N-methyl-4-phenoxy-benzamide]
30 to 50 | 50 to 75 | CCCCNc1cc(C(=O)NC)cc(S(=N)(=O)NCC2CCOCC2)c1Oc1ccccc1 (centres unmarked) [Compound 103, 3-(butylamino)-N-methyl-4-phenoxy-5-[(tetrahydropyran-4-ylmethylamino)sulfonimidoyl]benzamide]
30 to 50 | – | CCCCNc1cc(C(=O)NC)cc(S(=N)(=O)Nc2ccccc2)c1Oc1ccccc1 (centres unmarked) [Compound 104, 3-(anilinosulfonimidoyl)-5-(butylamino)-N-methyl-4-phenoxy-]
30 to 50 | 10 to 30 | CCCCNc1cc(C(=O)N(C)C)cc(S(=N)(=O)Nc2ccccc2)c1Oc1ccccc1 (centres unmarked) [Compound 105, 3-(anilinosulfonimidoyl)-5-(butylamino)-N,N-dimethyl-4-phenoxy-benzamide]
30 to 50 | – | CCCCNc1cc(C(=O)NC2CC2)cc(S(=N)(=O)Nc2ccccc2)c1Oc1ccccc1 (centres unmarked) [Compound 106, 3-(anilinosulfonimidoyl)-5-(butylamino)-N-cyclopropyl-4-phenoxy-benzamide]
– | 10 to 30 | CCCCNc1cc(C(=O)NCC2CC2)cc(S(=N)(=O)Nc2ccccc2)c1Oc1ccccc1 (centres unmarked) [Compound 107, 3-(anilinosulfonimidoyl)-5-(butylamino)-N-(cyclopropylmethyl)-4-phenoxy-benzamide]
30 to 50 | 30 to 50 | CCCCNc1cc(C(=O)NOC)cc(S(=N)(=O)Nc2ccccc2)c1Oc1ccccc1 (centres unmarked) [Compound 108, 3-(anilinosulfonimidoyl)-5-(butylamino)-N-methoxy-4-phenoxy-benzamide]
– | 10 to 30 | CCCCNc1cc(C(=O)NCCOC)cc(S(=N)(=O)Nc2ccccc2)c1Oc1ccccc1 (centres unmarked) [Compound 109, 3-(anilinosulfonimidoyl)-5-(butylamino)-N-(2-methoxyethyl)-4-phenoxy-benzamide]
– | 10 to 30 | CCCCNc1cc(C(=O)NCC(F)F)cc(S(=N)(=O)Nc2ccccc2)c1Oc1ccccc1 (centres unmarked) [Compound 110, 3-(anilinosulfonimidoyl)-5-(butylamino)-N-(2,2-difluoroethyl)-4-phenoxy-benzamide]
– | 10 to 30 | CCCCNc1cc(C(=O)NCC(F)(F)F)cc(S(=N)(=O)Nc2ccccc2)c1Oc1ccccc1 (centres unmarked) [Compound 111, 3-(anilinosulfonimidoyl)-5-(butylamino)-N-(2,2,2-trifluoroethyl)-4-phenoxy-benzamide]
10 to 30 | – | CCCCNc1cc(C(=O)NC)cc(S(=N)(=O)N2Cc3ccccc3C2)c1Oc1ccccc1 (centres unmarked) [Compound 112, 3-(butylamino)-5-(isoindolin-2-ylsulfonimidoyl)-N-methyl-4-phenoxy-benzamide]
30 to 50 | 10 to 30 | CCCCNc1cc(C(=O)NOC)cc(S(=N)(=O)N2Cc3ccccc3C2)c1Oc1ccccc1 (centres unmarked) [Compound 113, 3-(butylamino)-5-(isoindolin-2-ylsulfonimidoyl)-N-methoxy-4-phenoxy-benzamide]
30 to 50 | 10 to 30 | CCCCNc1cc(C(=O)NCCOC)cc(S(=N)(=O)N2Cc3ccccc3C2)c1Oc1ccccc1 (centres unmarked) [Compound 114, 3-(butylamino)-5-(isoindolin-2-ylsulfonimidoyl)-N-(2-methoxyethyl)-4-phenoxy-benzamide]
50 to 75 | 10 to 30 | CCCCNc1cc(C(=O)NCC(F)(F)F)cc(S(=N)(=O)N2Cc3ccccc3C2)c1Oc1ccccc1 (centres unmarked) [Compound 115, 3-(butylamino)-5-(isoindolin-2-ylsulfonimidoyl)-4-phenoxy-N-(2,2,2-trifluoroethyl)benzamide]
30 to 50 | – | CCCCNc1cc(C(=O)NC)cc(S(=N)(=O)NCc2cccc(Cl)c2)c1Oc1ccccc1 (centres unmarked) [Compound 116, 3-(butylamino)-5-[[(3-chlorophenyl)methylamino]sulfonimidoyl]-N-methyl-4-phenoxy-benzamide]
30 to 50 | 10 to 30 | CCCCNc1cc(C(=O)NOC)cc(S(=N)(=O)NCc2cccc(Cl)c2)c1Oc1ccccc1 (centres unmarked) [Compound 117, 3-(butylamino)-5-[[(3-chlorophenyl)methylamino]sulfonimidoyl]-N-methoxy-4-phenoxy-benzamide]
10 to 30 | 10 to 30 | CCCCNc1cc(C(=O)NCCOC)cc(S(=N)(=O)NCc2cccc(Cl)c2)c1Oc1ccccc1 (centres unmarked) [Compound 118, 3-(butylamino)-5-[[(3-chlorophenyl)methylamino]sulfonimidoyl]-N-(2-methoxyethyl)-4-phenoxy-benzamide]
10 to 30 | 10 to 30 | CCCCNc1cc(C(=O)NCC(F)(F)F)cc(S(=N)(=O)NCc2cccc(Cl)c2)c1Oc1ccccc1 (centres unmarked) [Compound 119, 3-(butylamino)-5-[[(3-chlorophenyl)methylamino]sulfonimidoyl]-4-phenoxy-N-(2,2,2-trifluoroethyl)benzamide]
30 to 50 | 30 to 50 | CCCCNc1cc(C(=O)NCCC(F)(F)F)cc(S(=N)(=O)Nc2ccccc2)c1Oc1ccccc1 (centres unmarked) [Compound 120, 3-(anilinosulfonimidoyl)-5-(butylamino)-4-phenoxy-N-(3,3,3-trifluoropropyl)benzamide]
30 to 50 | 30 to 50 | CCCCNc1cc(C(=O)NOC)cc(S(=N)(=O)NC2CCOCC2)c1Oc1ccccc1 (centres unmarked) [Compound 121, 3-(butylamino)-N-methoxy-4-phenoxy-5-[(tetrahydropyran-4-ylamino)sulfonimidoyl]benzamide]
30 to 50 | 30 to 50 | CCCCNc1cc(C(=O)NCCOC)cc(S(=N)(=O)NC2CCOCC2)c1Oc1ccccc1 (centres unmarked) [Compound 122, 3-(butylamino)-N-(2-methoxyethyl)-4-phenoxy-5-[(tetrahydropyran-4-ylamino)sulfonimidoyl]benzamide]
30 to 50 | 10 to 30 | CCCCNc1cc(C(=O)NCC(F)(F)F)cc(S(=N)(=O)NC2CCOCC2)c1Oc1ccccc1 (centres unmarked) [Compound 123, 3-(butylamino)-4-phenoxy-5-[(tetrahydropyran-4-ylamino)sulfonimidoyl]-N-(2,2,2-trifluoroethyl)benzamide]
30 to 50 | 30 to 50 | CCCCNc1cc(C(=O)OC)cc(S(=O)(=O)Nc2ccccc2)c1Oc1ccccc1 [Compound 124, methyl 3-(butylamino)-4-phenoxy-5-(phenylsulfamoyl)benzoate]
≥ 75 | ≥ 75 | CCCCNc1cc(C(=O)O)cc(S(=O)(=O)Nc2ccccc2)c1Oc1ccccc1 [Compound 125, 3-(butylamino)-4-phenoxy-5-(phenylsulfamoyl)benzoic acid]
30 to 50 | ≥ 75 | CCCCNc1cc(-c2nnn[nH]2)cc(S(=O)(=O)Nc2ccccc2)c1Oc1ccccc1 [Compound 126, 3-(butylamino)-2-phenoxy-N-phenyl-5-(1H-tetrazol-5-yl)benzenesulfonamide]
10 to 30 | 30 to 50 | CCCCNc1cc(-c2nc(=O)o[nH]2)cc(S(=O)(=O)Nc2ccccc2)c1Oc1ccccc1 [Compound 127, 3-(butylamino)-5-(5-oxo-2H-1,2,4-oxadiazol-3-yl)-2-phenoxy-N-phenyl-benzenesulfonamide]
10 to 30 | 50 to 75 | CCCCNc1cc(C(=O)O)cc(S(C)(=N)=O)c1Oc1ccccc1 (centres unmarked) [Compound 130, 3-(butylamino)-5-(methylsulfonimidoyl)-4-phenoxy-benzoic acid]
